Source: the supplement of paper PMC10307832

Columns and labels:
Experiment in all cases: relative viability (nuclei count vs DMSO), 5 days (fraction); higher = more cells survive
[1] = compound: CN1C=C(C2=CC=CC=C21)/C=C\3/C4=C(C=CC=N4)NC3=O
Method in brief: (§1)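 Five library-drug doses spaced by √10 were pinned onto vehicle-anchored 1536-well plates of lung cancer cell lines that had been kept overnight at 37 °C. Cells went 5 days without medium change, then were fixed, permeabilised and Hoechst-stained together, imaged at 4× and counted by MetaXpress. Viability is the ratio of treated-well to vehicle-well nuclei, taken as a median over plates. Plates required control CV below 25% and at least one doubling.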

Trametinib = compound: CC(=O)Nc1cccc(-n2c(=O)n(C3CC3)c(=O)c3c(Nc4ccc(I)cc4F)n(C)c(=O)c(C)c32)c1 [Trametinib]
Method in brief: as §1

Trametinib + Lapatinib = compound: CC(=O)Nc1cccc(-n2c(=O)n(C3CC3)c(=O)c3c(Nc4ccc(I)cc4F)n(C)c(=O)c(C)c32)c1 [Trametinib] + CS(=O)(=O)CCNCc1ccc(-c2ccc3ncnc(Nc4ccc(OCc5cccc(F)c5)c(Cl)c4)c3c2)o1 [Lapatinib] (partner 2 µM)
Method in brief: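 Cells from lung cancer lines were seeded into 1536-well plates and, one day later, dosed by pin tool. Treatments were either a single drug or a fixed dose of an anchor drug with five library-drug doses (not always all listed) in √10 steps. After 5 days, nuclei were stained in a one-step fixation (final 0.05% Triton X-100, 1% formaldehyde, 1 ug/ml Hoechst) and counted on 4× images, and relative viability is the treated-to-vehicle nuclei ratio, as the median of duplicate plates.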

Cell Line	relative viability ([1]; 0.02 µM)	relative viability ([1]; 0.06325 µM)	relative viability ([1]; 0.2 µM)	relative viability ([1]; 0.6325 µM)	relative viability ([1]; 2 µM)	relative viability (Trametinib; 0.0025 µM)	relative viability (Trametinib; 0.007906 µM)	relative viability (Trametinib; 0.02 µM, anchor plate)	relative viability (Trametinib; 0.025 µM)	relative viability (Trametinib; 0.07906 µM)	relative viability (Trametinib; 0.25 µM)	relative viability (Trametinib + Lapatinib; first compound 0.0025 µM)	relative viability (Trametinib + Lapatinib; first compound 0.007906 µM)	relative viability (Trametinib + Lapatinib; first compound 0.025 µM)	relative viability (Trametinib + Lapatinib; first compound 0.07906 µM)	relative viability (Trametinib + Lapatinib; first compound 0.25 µM)
RERF-LC-KJ	1	1.01	1.02	0.914	0.984	0.969	0.926	0.873	0.885	0.848	0.757	0.812	0.822	0.79	0.744	0.568
NCI-H1793	1.02	1.1	0.737	0.79	0.918	0.59	0.611	0.429	0.298	0.338	0.254	0.478	0.531	0.397	0.395	0.352
CAL-12T	0.894	0.873	0.98	0.972	0.924	0.904	0.723	0.369	0.503	0.51	0.343	0.54	0.514	0.47	0.648	0.429
NCI-H1993	0.927	0.84	0.825	0.671	0.814	0.698	0.732	0.54	0.548	0.693	0.628	0.824	0.909	0.651	0.648	0.682
LXF-289	0.979	1	0.976	1	1.03	0.897	0.86	0.679	0.755	0.722	0.664	0.863	0.759	0.677	0.615	0.57
NCI-H1792	0.88	0.979	0.69	0.829	0.957	0.844	0.856	0.475	0.477	0.387	0.281	0.976	0.79	0.682	0.535	0.417
LU99A	0.983	0.845	0.909	0.937	0.789	0.953	0.829	0.53	0.551	0.707	0.681	0.866	0.911	0.719	0.674	0.267
SW 1573	1.07	0.968	0.994	1.05	0.971	0.875	0.716	0.615	0.631	0.583	0.485	0.875	0.925	0.769	0.82	0.56
COR-L23	0.992	0.994	1.09	1.12	1	0.979	0.995	0.593	0.871	0.849	0.476	1.04	0.923	0.786	0.788	0.48
NCI-H1755	0.968	0.991	1.05	0.914	0.891	0.886	0.879	0.773	0.83	0.885	0.842	0.969	0.897	0.849	0.871	0.863
